Here are results for 15 molecules from ChEMBL document CHEMBL5131410, “Design and discovery of C2-fluoroalkyl iminothiazine dioxides as BACE inhibitors” (Bioorg Med Chem Lett, 2022).

Series [1] has as its target T1, Beta-secretase 1 (Homo sapiens, UniProt P56817). The experiment in a line: Inhibition of BACE1 (unknown origin).
The target in series [2] is T1, Beta-secretase 1. In words: Inhibition of BACE1 (unknown origin) expressed in HEK293 cells expressing human APP with Swedish and London familial AD mutation. Type of series: cell-based.
The subject of series [3] is Rattus norvegicus. The experiment in a line: Antialzheimer activity against in po dosed rat assessed as decrease in amyloid beta 40 in CSF measured after 3 hrs. In kind it is functional.
Series [4] deals with Rattus norvegicus. In words: Antialzheimer activity against in po dosed rat assessed as plasma concentration required to 50 % decrease in amyloid beta 40 in CSF measured after 3 hrs. Type of series: functional, organism-based.
For series [5], the system named is Rhesus monkey. In words: Antialzheimer activity against in po dosed rhesus monkey assessed as decrease in amyloid beta 40 in CSF measured after 3 hrs. Conditions: Macaca mulatta. In kind it is functional.
Series [6] deals with Rhesus monkey. In words: Antialzheimer activity against in po dosed rhesus monkey assessed as plasma concentration required to 50 % decrease in amyloid beta 40 in CSF measured after 3 hrs. Type of series: functional, organism-based. The conditions noted are these: Macaca mulatta.
Series [7] relates to Rattus norvegicus. The experiment in a line: Antialzheimer activity against in rat assessed as decrease in amyloid beta 40 in CSF at 10 mg/kg, po and measured after 3 hrs relative to control. On the set-up: scale not given: the % may be the effect or the level left. In kind it is functional.
The target of a further series is Cathepsin D (Homo sapiens, UniProt P07339). The experiment in a line: Inhibition of human cathepsin D.
Cathepsin D, sequence (P07339 65-162 limits assumed): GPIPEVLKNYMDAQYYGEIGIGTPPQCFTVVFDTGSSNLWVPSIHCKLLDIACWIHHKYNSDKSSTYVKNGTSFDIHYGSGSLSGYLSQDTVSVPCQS
Cathepsin D, sequence (P07339 169-412 limits assumed): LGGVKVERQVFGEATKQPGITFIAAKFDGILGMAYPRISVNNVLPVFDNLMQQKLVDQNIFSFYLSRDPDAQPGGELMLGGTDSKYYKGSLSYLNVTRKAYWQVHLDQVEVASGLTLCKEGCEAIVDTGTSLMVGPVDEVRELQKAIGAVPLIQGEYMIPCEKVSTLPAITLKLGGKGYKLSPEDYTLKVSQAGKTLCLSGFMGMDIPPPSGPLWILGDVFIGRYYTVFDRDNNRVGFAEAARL
A further series concerns the target T2, Cathepsin E (Homo sapiens, UniProt P14091).
T2 sequence (P14091 whole entry): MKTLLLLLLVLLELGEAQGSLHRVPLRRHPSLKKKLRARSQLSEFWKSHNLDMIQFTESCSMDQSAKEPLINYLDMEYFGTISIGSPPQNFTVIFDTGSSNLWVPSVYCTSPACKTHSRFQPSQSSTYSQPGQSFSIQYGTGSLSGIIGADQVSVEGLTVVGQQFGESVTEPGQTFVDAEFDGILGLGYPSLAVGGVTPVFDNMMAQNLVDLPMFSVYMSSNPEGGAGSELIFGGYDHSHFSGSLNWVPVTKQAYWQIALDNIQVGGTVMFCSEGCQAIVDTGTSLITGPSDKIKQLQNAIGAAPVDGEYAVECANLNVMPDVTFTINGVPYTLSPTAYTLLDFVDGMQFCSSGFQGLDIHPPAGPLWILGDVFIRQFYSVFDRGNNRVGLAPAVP
The experiment in a line: Inhibition of human cathepsin E.

For another series, the target named is T3, Renin (Homo sapiens, UniProt P00797).
T3 sequence (P00797 whole entry): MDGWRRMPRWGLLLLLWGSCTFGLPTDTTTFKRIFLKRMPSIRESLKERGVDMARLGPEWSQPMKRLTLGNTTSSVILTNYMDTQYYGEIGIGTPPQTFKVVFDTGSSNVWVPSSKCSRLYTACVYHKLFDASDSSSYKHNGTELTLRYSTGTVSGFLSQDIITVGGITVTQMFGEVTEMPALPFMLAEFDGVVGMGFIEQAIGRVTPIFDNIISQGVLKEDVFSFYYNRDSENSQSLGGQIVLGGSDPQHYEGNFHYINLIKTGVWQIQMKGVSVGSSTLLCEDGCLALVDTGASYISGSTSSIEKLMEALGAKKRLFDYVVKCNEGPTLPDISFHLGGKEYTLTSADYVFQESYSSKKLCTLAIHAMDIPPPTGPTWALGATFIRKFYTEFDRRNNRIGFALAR
In words: Inhibition of human renin.

Series [8] has as its target Voltage-dependent L-type calcium channel subunit alpha-1C (Homo sapiens, UniProt Q13936). The experiment in a line: Inhibition of CAV1.2 (unknown origin).
Series [9] addresses Sodium channel protein type 2 subunit alpha (Homo sapiens, UniProt Q99250). In words: Inhibition of NaV1.2 (unknown origin).
The nature of series [10]: Dissociation constant, pKa of compound by UV-metric spectrophotometric analysis. Type of series: physicochemical.
The test system of another series is MDR1 (human). The experiment in a line: Efflux ratio of apparent permeability across basolateral to apical membrane to apical to basolateral membrane in pig LLC-PK1 cells expressing human MDR1 at 1 uM. In kind it is ADME, cell-based, Sus scrofa.
For the next series, the system named is MDR1 (rat). The experiment in a line: Efflux ratio of apparent permeability across basolateral to apical membrane to apical to basolateral membrane in pig LLC-PK1 cells expressing rat MDR1 at 1 uM. In kind it is ADME, cell-based, Sus scrofa.
The nature of series [11]: Apparent permeability in pig LLC-PK1 cells. In kind it is ADME, cell-based, Sus scrofa.
The target of series [12] is T4, Voltage-gated inwardly rectifying potassium channel KCNH2 (Homo sapiens, UniProt Q12809). In words: Displacement of MK499 from human ERG expressed in HEK membrane by radio ligand binding competition assay. In kind it is toxicity, cell membranes, Cell membrane.
T4 sequence (Q12809 whole entry): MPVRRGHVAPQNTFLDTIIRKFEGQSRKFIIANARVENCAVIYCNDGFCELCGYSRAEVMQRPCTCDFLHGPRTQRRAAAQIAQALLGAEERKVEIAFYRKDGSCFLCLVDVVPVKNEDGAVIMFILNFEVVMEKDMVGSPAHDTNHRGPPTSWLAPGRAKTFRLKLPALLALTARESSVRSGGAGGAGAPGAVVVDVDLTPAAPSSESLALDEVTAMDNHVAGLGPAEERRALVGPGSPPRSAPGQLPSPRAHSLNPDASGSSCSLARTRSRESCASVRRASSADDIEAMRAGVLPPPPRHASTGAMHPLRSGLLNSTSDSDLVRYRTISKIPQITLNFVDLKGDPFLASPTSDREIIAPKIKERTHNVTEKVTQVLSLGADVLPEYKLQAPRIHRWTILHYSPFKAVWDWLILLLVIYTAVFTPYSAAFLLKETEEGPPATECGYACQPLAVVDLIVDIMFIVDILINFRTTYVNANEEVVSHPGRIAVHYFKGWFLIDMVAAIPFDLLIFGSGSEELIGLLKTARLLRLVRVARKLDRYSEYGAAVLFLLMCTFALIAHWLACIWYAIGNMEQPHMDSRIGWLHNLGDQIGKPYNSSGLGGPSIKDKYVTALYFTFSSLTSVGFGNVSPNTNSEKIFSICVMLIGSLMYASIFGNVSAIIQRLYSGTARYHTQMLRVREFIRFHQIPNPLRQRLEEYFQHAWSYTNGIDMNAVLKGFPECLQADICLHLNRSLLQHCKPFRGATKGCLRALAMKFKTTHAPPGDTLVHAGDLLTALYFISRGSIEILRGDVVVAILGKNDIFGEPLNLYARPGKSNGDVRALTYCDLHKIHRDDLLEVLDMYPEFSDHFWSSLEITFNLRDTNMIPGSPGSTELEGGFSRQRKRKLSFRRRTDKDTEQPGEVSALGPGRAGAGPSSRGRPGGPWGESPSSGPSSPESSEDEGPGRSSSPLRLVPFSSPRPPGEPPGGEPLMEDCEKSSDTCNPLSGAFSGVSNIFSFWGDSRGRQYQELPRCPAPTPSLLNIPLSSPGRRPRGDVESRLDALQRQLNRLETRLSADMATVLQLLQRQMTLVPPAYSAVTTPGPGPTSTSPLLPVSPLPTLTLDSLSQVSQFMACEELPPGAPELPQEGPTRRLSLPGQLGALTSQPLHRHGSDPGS
A short description of series [13]: Lipophilicity, log D of compound at pH 7 by HPLC analysis. The conditions noted are these: buffer. Type of series: physicochemical.
A short description of series [14]: Drug concentration in rat plasma at 10 mg/kg, po after 3 hrs. In kind it is ADME, organism-based.
A short description of series [15]: Drug concentration in rat CSF at 10 mg/kg, po after 3 hrs. Type of series: ADME, organism-based, Cerebrospinal fluid. Conditions: read-out: Ct.
The target in series [16] is T4, Voltage-gated inwardly rectifying potassium channel KCNH2. The experiment in a line: Inhibition of human ERG expressed in HEK cells by voltage clamp assay. Type of series: toxicity, cell-based.
Series [17] in a line: Free drug concentration in human plasma. Type of series: ADME, cell-free.
A short description of series [18]: Free drug concentration in cynomolgus monkey plasma. In kind it is ADME, cell-free, Macaca fascicularis.
Series [19] in a line: Free drug concentration in rat plasma. Type of series: ADME, cell-free.
The nature of series [20]: Ratio of drug level in brain to plasma in rat. In kind it is ADME. Conditions: read-out: BPR.

T1 sequence (P56817 whole entry): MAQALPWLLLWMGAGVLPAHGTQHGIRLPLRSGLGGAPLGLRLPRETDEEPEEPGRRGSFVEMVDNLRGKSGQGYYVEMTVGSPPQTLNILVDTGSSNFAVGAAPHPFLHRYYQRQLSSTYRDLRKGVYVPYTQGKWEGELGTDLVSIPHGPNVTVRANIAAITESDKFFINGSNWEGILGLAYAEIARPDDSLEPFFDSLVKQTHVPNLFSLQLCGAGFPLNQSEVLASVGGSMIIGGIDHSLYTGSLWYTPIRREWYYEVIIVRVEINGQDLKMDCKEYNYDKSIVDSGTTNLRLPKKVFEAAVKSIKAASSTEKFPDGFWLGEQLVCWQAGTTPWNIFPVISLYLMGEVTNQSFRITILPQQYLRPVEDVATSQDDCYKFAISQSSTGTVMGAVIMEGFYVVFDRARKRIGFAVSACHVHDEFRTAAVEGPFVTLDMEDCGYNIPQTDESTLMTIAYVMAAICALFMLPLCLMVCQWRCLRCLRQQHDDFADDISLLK
Voltage-dependent L-type calcium channel subunit alpha-1C, sequence (Q13936 whole entry): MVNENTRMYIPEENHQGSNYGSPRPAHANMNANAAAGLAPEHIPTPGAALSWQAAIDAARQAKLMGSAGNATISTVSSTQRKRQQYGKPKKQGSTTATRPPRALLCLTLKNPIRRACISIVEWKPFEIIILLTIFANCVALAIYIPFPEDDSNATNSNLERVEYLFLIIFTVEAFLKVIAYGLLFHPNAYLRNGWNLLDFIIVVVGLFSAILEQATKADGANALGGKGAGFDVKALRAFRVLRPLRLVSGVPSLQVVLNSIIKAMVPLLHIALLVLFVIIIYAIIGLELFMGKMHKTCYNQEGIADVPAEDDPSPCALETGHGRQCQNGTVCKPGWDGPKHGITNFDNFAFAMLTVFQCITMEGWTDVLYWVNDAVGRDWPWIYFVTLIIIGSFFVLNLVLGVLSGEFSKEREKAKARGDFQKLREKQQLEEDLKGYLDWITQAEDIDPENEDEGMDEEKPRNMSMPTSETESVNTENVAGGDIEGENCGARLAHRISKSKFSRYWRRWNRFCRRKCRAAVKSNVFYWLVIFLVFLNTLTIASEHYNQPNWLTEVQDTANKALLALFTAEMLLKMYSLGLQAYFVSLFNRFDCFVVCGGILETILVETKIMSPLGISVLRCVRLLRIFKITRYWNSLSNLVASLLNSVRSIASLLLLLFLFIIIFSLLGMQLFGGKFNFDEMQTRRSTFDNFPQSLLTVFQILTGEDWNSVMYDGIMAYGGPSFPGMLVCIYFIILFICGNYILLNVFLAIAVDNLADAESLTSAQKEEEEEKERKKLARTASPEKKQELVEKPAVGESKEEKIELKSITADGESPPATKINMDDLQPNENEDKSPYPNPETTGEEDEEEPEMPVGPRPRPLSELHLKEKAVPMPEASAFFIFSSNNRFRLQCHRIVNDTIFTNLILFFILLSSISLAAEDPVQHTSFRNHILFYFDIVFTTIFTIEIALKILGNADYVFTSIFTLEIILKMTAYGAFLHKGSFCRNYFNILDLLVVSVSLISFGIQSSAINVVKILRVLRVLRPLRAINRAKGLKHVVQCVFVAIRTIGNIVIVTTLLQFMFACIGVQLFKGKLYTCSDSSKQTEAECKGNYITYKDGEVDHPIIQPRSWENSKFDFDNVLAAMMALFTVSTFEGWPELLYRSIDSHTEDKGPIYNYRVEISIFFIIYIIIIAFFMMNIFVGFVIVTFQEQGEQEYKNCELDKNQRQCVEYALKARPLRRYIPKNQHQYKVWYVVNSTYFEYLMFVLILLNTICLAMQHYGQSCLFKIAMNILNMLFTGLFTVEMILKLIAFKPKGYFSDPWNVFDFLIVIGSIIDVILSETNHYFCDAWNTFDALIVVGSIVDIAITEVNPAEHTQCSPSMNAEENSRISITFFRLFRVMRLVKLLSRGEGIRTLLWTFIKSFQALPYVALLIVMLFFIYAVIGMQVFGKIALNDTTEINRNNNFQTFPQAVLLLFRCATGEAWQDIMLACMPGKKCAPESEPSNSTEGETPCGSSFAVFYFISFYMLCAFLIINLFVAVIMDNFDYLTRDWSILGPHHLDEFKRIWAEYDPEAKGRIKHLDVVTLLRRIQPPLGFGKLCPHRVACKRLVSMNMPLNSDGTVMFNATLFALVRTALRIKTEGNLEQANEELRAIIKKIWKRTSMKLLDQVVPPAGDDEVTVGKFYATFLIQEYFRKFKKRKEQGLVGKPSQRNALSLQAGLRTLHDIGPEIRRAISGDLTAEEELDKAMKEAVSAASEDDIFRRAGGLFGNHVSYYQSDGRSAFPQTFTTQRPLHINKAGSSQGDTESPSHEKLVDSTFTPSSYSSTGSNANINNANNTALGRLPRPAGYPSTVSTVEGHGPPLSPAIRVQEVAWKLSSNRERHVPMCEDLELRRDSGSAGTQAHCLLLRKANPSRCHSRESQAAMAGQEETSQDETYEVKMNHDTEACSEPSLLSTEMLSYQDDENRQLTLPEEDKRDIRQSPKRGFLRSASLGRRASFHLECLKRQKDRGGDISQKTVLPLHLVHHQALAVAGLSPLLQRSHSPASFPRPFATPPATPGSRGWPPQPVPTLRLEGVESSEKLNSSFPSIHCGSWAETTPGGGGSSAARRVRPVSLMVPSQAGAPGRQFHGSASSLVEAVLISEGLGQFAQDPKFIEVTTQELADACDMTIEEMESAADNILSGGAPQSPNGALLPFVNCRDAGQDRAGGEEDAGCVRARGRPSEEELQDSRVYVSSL

One may read the Ki as a dissociation constant, usually derived from enzyme kinetics or from competition with a known ligand. For orientation: IC50 means the midpoint of a concentration-inhibition curve. On to `C[C@@]1(c2nc(NC(=O)c3ccc(C#N)cn3)ccc2F)CS(=O)(=O)[C@](C)(CF)C(=N)N1`, for which the Ki at Beta-secretase 1 [1] worked out at 3 nM. For the same molecule, the IC50 on Beta-secretase 1 [2] was determined as 7 nM.

What is called ED50 is the dose that gives a 50% effect, or the effect in half of the subjects. By EC50 is commonly meant the concentration that produces a half-maximal response. `COc1cnc(C(=O)Nc2ccc(F)c([C@]3(C)CS(=O)(=O)C(C)(C)C(N)=N3)c2)cn1`: the ED50 with Rattus norvegicus [3] is 1.2 mg/kg; with Rhesus monkey [5], 0.3 mg/kg. The values for the EC50 in the series with Rattus norvegicus [4] and with Rhesus monkey [6] were 15 nM and 23 nM, respectively.

With `Cc1cc(C#N)cnc1C(=O)Nc1ccc(F)c([C@]2(C)CS(=O)(=O)[C@@](C)(C(F)F)C(=N)N2)n1`, the Ki was 1 nM at Beta-secretase 1 [1], 5880 nM at Cathepsin D, greater than 30500 nM at Cathepsin E and greater than 19100 nM at Renin. Further, the IC50 is 3 nM on Beta-secretase 1 [2], 7060 nM in series [8] and greater than 30000 nM in series [9]. Besides, the Activity in the series on Rattus norvegicus [7] worked out at 91%. Further, the ED50 in the series on Rattus norvegicus [3] was 3 mg/kg; in the series on Rhesus monkey [5] it was less than 3 mg/kg. For the same molecule, the EC50 with Rattus norvegicus [4] was determined as 130 nM; in the series on Rhesus monkey [6], 20 nM.

For `C[C@]1(CF)C(=N)N[C@](C)(c2nc(NC(=O)c3ccc(C#N)cn3)ccc2F)CS1(=O)=O`, the Ki on Beta-secretase 1 [1] came to 2 nM. This molecule also registered an IC50 against Beta-secretase 1 [2] of 3 nM.

As to `COc1cnc(C(=O)Nc2ccc(F)c([C@]3(C)CS(=O)(=O)[C@](C)(CF)C(=N)N3)c2)cn1`, the affinity on Beta-secretase 1 [1] corresponds to a Ki of 4 nM. For the same molecule, the IC50 on Beta-secretase 1 [2] stood at 14 nM.

At Beta-secretase 1 [1], `Cc1cc(C#N)cnc1C(=O)Nc1ccc(F)c([C@]2(C)CS(=O)(=O)[C@](C)(C(F)F)C(=N)N2)n1` returned a Ki of 3 nM. On Beta-secretase 1 [2], this molecule returned an IC50 of 11 nM. For the same molecule, in the series with Rattus norvegicus [7], the Activity was found to be 80%.

As usually defined, the pKa is the negative logarithm of the acid dissociation constant. A word on the efflux ratio: it is the permeability from basolateral to apical divided by that in the opposite direction, in the common usage. By Papp is commonly meant the rate of passage across a membrane or cell layer, normalised by area and donor concentration. The logD is the decadic logarithm of the distribution of all forms, ionised or not, between an organic phase and buffer at a given pH. Take `C[C@@]1(c2nc(NC(=O)c3ccc(C#N)cn3)ccc2F)CS(=O)(=O)[C@@](C)(C(F)F)C(=N)N1`: the Ki at Beta-secretase 1 [1] worked out at 3 nM. Further, the IC50 on Beta-secretase 1 [2] turned out to be 11 nM; in series [12], 2420 nM. In [10], the pKa was 6.19. Besides, the figures for the efflux ratio at 1 µM with MDR1 (human) and with MDR1 (rat) were 1 and 8.6, respectively. For the same molecule, in series [11], the Papp was found to be 28.6 ×10⁻⁶ cm/s. For the same molecule, the Activity with Rattus norvegicus [7] came to 80%. Besides, the logD in series [13] turned out to be 2.3. Besides, the results for the concentration at 3 h in series [14] and in series [15] were 154 nM and 8 nM, respectively.

In turn, `COc1cnc(C(=O)Nc2ccc(F)c([C@]3(C)CS(=O)(=O)[C@@](C)(C(F)F)C(=N)N3)c2)cn1` registered a Ki on Beta-secretase 1 [1] of 3 nM. The molecule also returned an IC50 on Beta-secretase 1 [2] of 30 nM.

For `CC1(C)C(=N)N[C@](C)(c2nc(NC(=O)c3ccc(C#N)cn3)ccc2F)CS1(=O)=O`, the Activity with Rattus norvegicus [7] stood at 88%.

Molecule `COc1cnc(C(=O)Nc2ccc(F)c([C@]3(C)CS(=O)(=O)[C@](C)(C(F)F)C(=N)N3)c2)cn1` showed a Ki at Beta-secretase 1 [1] of 12 nM. This molecule also came in with an IC50 against Beta-secretase 1 [2] of 171 nM.

In turn, `Cc1cc(C#N)cnc1C(=O)Nc1ccc(F)c([C@]2(C)CS(=O)(=O)[C@](C)(CF)C(=N)N2)n1` came in with a Ki at Beta-secretase 1 [1] of 2 nM. At Beta-secretase 1 [2], this molecule displayed an IC50 of 2 nM. For the same molecule, in the series with Rattus norvegicus [7], the Activity stood at 68%.

As to `Cc1cc(C#N)cnc1C(=O)Nc1ccc(F)c([C@]2(C)CS(=O)(=O)[C@@](C)(CF)C(=N)N2)n1`, the affinity at Beta-secretase 1 [1] corresponds to a Ki of 1 nM. In addition, on Beta-secretase 1 [2], the IC50 came out at 1 nM. Further, the Activity in the series on Rattus norvegicus [7] is reported as 92%.

For the molecule `COc1cnc(C(=O)Nc2ccc(F)c([C@]3(C)CS(=O)(=O)[C@@](C)(CF)C(=N)N3)c2)cn1`, at Beta-secretase 1 [1], the Ki is 5 nM. The molecule further yielded an IC50 on Beta-secretase 1 [2] of 12 nM.

For `C[C@@]1(C(F)F)C(=N)N[C@](C)(c2nc(NC(=O)c3ccc(C#N)cn3)ccc2F)CS1(=O)=O`, the affinity on Beta-secretase 1 [1] corresponds to a Ki of 10 nM. Besides, the IC50 against Beta-secretase 1 [2] stood at 78 nM; in series [12], 24200 nM. In series [10], the pKa turned out to be 5.95. Besides, the efflux ratio at 1 µM was determined as 0.8 in the series with MDR1 (human) and 3.7 with MDR1 (rat). The Papp in [11] was 32.7 ×10⁻⁶ cm/s. In series [13], the logD stood at 2.5.

As usually defined, the fraction unbound is free concentration divided by total concentration. `CN1C(N)=N[C@](C)(c2cc(NC(=O)c3ccc(F)cn3)ccc2F)CS1(=O)=O` [VERUBECESTAT]: the pKa in series [10] came out at 7.5. Also, in [11], the Papp was 23 ×10⁻⁶ cm/s. Further, half-maximal inhibition in series [16] (IC50) required 2200 nM. For the same molecule, the results for the fraction unbound in series [17], in series [18] and in [19] were 0.24, 0.18 and 0.21, respectively. The ED50 with Rattus norvegicus [3] was 0.69 mg/kg; in the series on Rhesus monkey [5] it was less than 3 mg/kg. Also, the EC50 in the series on Rattus norvegicus [4] was found to be 110 nM; in the series on Rhesus monkey [6], 41 nM. Also, the Kp in [20] is 0.23.
